Measured values taken from US20240316059A1, “PEPTIDE DRUG CONJUGATES” (Oncopeptides AB, priority 2021, published 2024).
Where two headings read alike, the source gives them in different places.

Experiments:
[1] = test system: DERL-2; experiment: In vitro cytotoxicity, DERL-2 (T cell Lymphoma); format: cell-based; details: Homo sapiens, 72 h, CellTiter-Glo 2.0, 20% FBS, 40 ng/mL IL-2, read-out: Cytotoxicity IC50, DERL-2
Method: (§1) All cells were cultivated in RPMI medium 1640 (IX). All media was supplemented with 10 μg/μl penicillin/streptomycin, 10% heat inactivated FBS, 0.1 mM Sodium Pyruvate, 1×MEM NEAA (ThermoFisher) and 1 mM HEPES. The DERL-2 cells had higher FBS (20%) and 40 ng/mL IL-2 was added. hPBMCs were thawed and allowed to acclimatise overnight and then stimulated with 10 μg/mL PHA-M and 40 ng/mL IL-2 for 4 hours before being exposed to test compounds. All cells, except for hPBMCs, were grown to reach log phase before being exposed to the test compounds.
(§2) Test compounds were dissolved in 100% DMSO and added to a 384 assay plate. Additional DMSO was added to maintain the same final DMSO concentration (0.2%) in all wells. 25 μL cell suspension with a concentration of 100000 cells/mL was added to each well. The cells were cultured in a CO2 incubator at 37° C. for 72 h. Plates were equilibrated to room temperature for 30 minutes before adding 20 μL CellTiter-Glo® 2.0 (Promega) reagent to all wells. The plate was then allowed to stabilize for 20 minutes before recording the luminescence (Em filter 700 nm) in an Envision plate reader.

[2] = In vitro cytotoxicity, BJ fibroblasts (normal cells); format: cell-based; details: human, CellTiter-Glo 2.0
Method: as §1, §2

[3] = test system: DNA prepared from MM.1S cells (nuclear HPRT and mitochondrial DNA); experiment: Direct DNA damage, PCR amplification of treated DNA (HPRT and mtDNA primers); format: biochemical, human; details: 0.25 μM compound, 30 minutes, 37° C., 1 μg DNA
Method: Method: DNA was prepared from MM.1S cells by QIAGEN genomic tip 20/G according to protocol described in Furda et al., Methods Mol Biol, 2012. 1 μg of DNA was treated with 0.25 μM compound for 30 minutes at 37° C. DMSO was used as control treatment. 20 ng of the treated DNA was PCR amplified using Phusion Hot Start II High Fidelity PCR Master Mix (Thermo Scientific) and primers directed to either HPRT or primers directed to mitochondrial DNA (mtDNA) was used, generating 10.4 or 8.9 kb fragments, respectively. The PCR reactions were separated on a 1% agarose gel and visualized by ChemiDoc™ MP Imaging System (BioRad). Example compounds 1, 2 and 38 were investigated, as were compounds 18 and 20, which are metabolites of compound 1. They were compared with bendamustine, melphalan and DMSO control. The results for compounds 1, 2, 18 and 20 with the HPRT primers are shown in FIG. 4(A); the results with the mtDNA primers are shown in FIG. 4(B).

[4] = test system: MM.1S cells; experiment: In vitro cytotoxic potency in MM.1S cell viability assay (CellTiter-Glo); format: cell-based, human; details: Homo sapiens, MM1.S, 72 h
Outline: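 Log-phase MM.1S cells in supplemented RPMI 1640 were seeded at 100000 cells/mL with compound (0.2% DMSO final). After 72 h at 37 °C in CO2, viability was measured by CellTiter-Glo 2.0 luminescence.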

[5] = test system: OPM-2; experiment: In vitro cytotoxicity, OPM-2 (Multiple Myeloma); format: cell-based; details: Homo sapiens, OPM-2; 72 h, CellTiter-Glo 2.0; read-out: Cytotoxicity IC50, OPM-2
Method: as §1, §2

[6] = test system: AMO-1; experiment: In vitro cytotoxicity, AMO-1 (Multiple Myeloma); format: cell-based; details: Homo sapiens, AMO1; 72 h, CellTiter-Glo 2.0; read-out: Cytotoxicity IC50, AMO-1
Method: as §1, §2

[7] = test system: KMS-12-BM; experiment: In vitro cytotoxicity, KMS-12-BM (Multiple Myeloma); format: cell-based; details: Homo sapiens, 72 h, CellTiter-Glo 2.0, read-out: Cytotoxicity IC50, KMS-12-BM
Method: as §1, §2

[8] = test system: U266; experiment: In vitro cytotoxicity, U266 (Multiple Myeloma); format: cell-based; details: Homo sapiens, U-266; 72 h, CellTiter-Glo 2.0; read-out: Cytotoxicity IC50, U266
Method: as §1, §2

[9] = In vitro cytotoxicity, human peripheral blood mononuclear cells; format: cell-based; details: CellTiter-Glo 2.0, stimulated with PHA-M and IL-2, read-out: Cytotoxicity IC50, hPBMC
Method: as §1, §2

[10] = test system: SC-1; experiment: In vitro cytotoxicity, SC-1 (B cell Lymphoma); format: cell-based; details: Homo sapiens, SC-1; 72 h, CellTiter-Glo 2.0; read-out: Cytotoxicity IC50, SC-1
Method: as §1, §2

[11] = test system: THP-1; experiment: In vitro cytotoxicity, THP-1 (Acute Myeloid Leukemia); format: cell-based; details: Homo sapiens, THP-1; 72 h, CellTiter-Glo 2.0; read-out: Cytotoxicity IC50, THP-1
Method: as §1, §2

[12] = test system: SUP-T1; experiment: In vitro cytotoxicity, SUP-T1 (T cell Lymphoma); format: cell-based; details: Homo sapiens, SUP-T1; 72 h, CellTiter-Glo 2.0; read-out: Cytotoxicity IC50, SUP-T1
Method: as §1, §2

[13] = test system: MM.1S cells; experiment: Cellular retention/efflux: intracellular and extracellular concentrations by LC-MS/MS; format: in vitro ADME, human; details: metabolites measured after treatment with the parent Example compound
Method: Methods: MMA1S cells at 2×10^6 cells/mL were seeded at 250 μL per well in a 96-well plate. Cells were incubated in the presence of a test compound for 5, 15, and 60 min before pelleting cells by centrifugation at +4° C. for 5 min. Cell media was immediately harvested to a second plate and stored at −80° C. until further analysis. Pelleted cells were washed once with ice cold PBS before storage at −80° C. until further analysis.
Cells were lysed and protein in the media were precipitated using acetonitrile dimethylformamide, 9:1 containing internal standard. Samples were centrifuged and the supernatant was analyzed with LC-MS/MS (ACQUITY UPLC-Xevo TQ-S micro) to determine compound concentration.
Example compound 1, bendamustine and melphalan were used as test compounds.
Method: Method described in Biological example 3.
Example compounds 1, 2, 3, 4, 6, 7 and 10 were investigated. Intracellular metabolites are formed from all compounds tested. The compound used for cell treatment was metabolised to the ester-hydrolysed compound (here called Metabolite A) and to the amide-hydrolysed compound (called Metabolite B). The example compound structures and the structures of the two metabolites for the respective compounds were as shown in Table 4. The Metabolites B formed under the conditions tested were compounds with structure as Examples 17 and 18: […]

[14] = test system: EJM; experiment: In vitro cytotoxicity, EJM (Multiple Myeloma); format: cell-based; details: Homo sapiens, 72 h, CellTiter-Glo 2.0, read-out: Cytotoxicity IC50, EJM
Method: as §1, §2

[15] = test system: RPMI-8226; experiment: In vitro cytotoxicity, RPMI-8226 (Multiple Myeloma, resistant); format: cell-based; details: Homo sapiens, RPMI-8226; 72 h, CellTiter-Glo 2.0; read-out: Cytotoxicity IC50, RPMI-8226
Method: as §1, §2

N[C@@H](Cc1ccc(N(CCCl)CCCl)cc1)C(=O)O [Melphalan, melphalan, reference compound]
IC50 [1]: 1.88 µM
IC50 at 72 h [2]: 104 µM
DNA damage on nuclear and mitochondrial DNA (PCR band) [3]: no or very minor effect on DNA damage
IC50 ([4]; read-out: Cytotoxicity IC50, MM.1S): 4.25 µM
IC50 ([4]; read-out: MM.1S IC50): 4.25 µM
IC50 [5]: 10.2 µM
IC50 [6]: 8.34 µM
IC50 [7]: 9.83 µM
IC50 [8]: 18.9 µM
IC50 at 72 h [9]: 3.6 µM
IC50 [10]: 8.64 µM
IC50 [11]: 4.31 µM
IC50 [12]: 2.96 µM
Intracellular concentration (in words) ([13]; MM.1S cells incubated with test compound 5, 15, 60 min): low intracellular concentration
Extracellular concentration (in words) ([13]; media of MM.1S cells incubated with test compound 5, 15, 60 min): high and constant throughout the experiment
IC50 [14]: 40 µM
IC50 [15]: 32.5 µM
